Test results as given in PMC12114683, “The Molecular Chaperone TCP1 Affects Carcinogenicity and Is a Potential Therapeutic Target for Acute Myeloid Leukemia” (Pharmaceutics, 2025).

Biological target: T1, TCP1 (Homo sapiens, UniProt P17987)
T1 construct: commercial recombinant TCP1 (Abnova), isolated subunit, amine-coupled to CM5 chip; PDB 4B2T was only the docking model
Test: SPR (Biacore T200, CM5 chip, TCP1 amine-coupled)
Format: binding

T1 sequence (P17987 whole entry): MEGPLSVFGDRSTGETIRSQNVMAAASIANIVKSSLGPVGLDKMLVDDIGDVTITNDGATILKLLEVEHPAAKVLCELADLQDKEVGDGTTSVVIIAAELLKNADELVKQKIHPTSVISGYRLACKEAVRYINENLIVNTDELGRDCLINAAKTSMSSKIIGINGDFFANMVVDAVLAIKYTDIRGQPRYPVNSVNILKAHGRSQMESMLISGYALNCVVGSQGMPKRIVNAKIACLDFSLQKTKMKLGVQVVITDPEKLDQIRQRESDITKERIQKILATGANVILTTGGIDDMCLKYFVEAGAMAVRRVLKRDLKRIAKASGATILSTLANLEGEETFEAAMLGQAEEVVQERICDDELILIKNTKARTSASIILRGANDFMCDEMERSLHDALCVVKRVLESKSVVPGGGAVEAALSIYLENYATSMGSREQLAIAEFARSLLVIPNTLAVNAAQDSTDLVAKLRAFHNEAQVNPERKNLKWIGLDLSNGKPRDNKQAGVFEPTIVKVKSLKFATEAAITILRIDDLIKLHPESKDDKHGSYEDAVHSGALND

Kd: 6.77 nM
Compound: CCCCCCCCc1ccc(CCC(N)(CO)CO)cc1 [FTY720]
